This is an account of results in patent US20260262643A1, “HERBICIDAL BENZOXAZINES” (FMC CORPORATION, priority 2022, published 2026).

For assay [1], the system named is barnyardgrass. In words: Test A postemergence. The format is in vivo, Echinochloa crusgalli. As to conditions: 1000 g ai/ha, Postemergence; 0 to 100 scale. In outline: (§1)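 Weeds and crops in loam–sand blend were sprayed preemergence onto soil or postemergence at 2–10 cm (one- to two-leaf stage). Test chemicals were in a non-phytotoxic solvent with surfactant. After 10 days in the greenhouse, injury was rated visually against untreated controls on a 0 (no effect) to 100 (complete control) scale.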

In assay [2] the test system is barnyardgrass. In words: Test A preemergence. The settings on record: 1000 g ai/ha, 0 to 100 scale (0 no effect, 100 complete control), 10 days. The format is in vivo, Echinochloa crusgalli. In outline:
as §1

Assay [3] has as its system ryegrass, Italian. Description: Test A postemergence. The format is in vivo, Lolium multiflorum. The settings on record: Lolium multiflorum, post-emergence, 240 h, 1000 g ai/ha, Postemergence; 0 to 100 scale; read-out: Plant response rating, Ryegrass, Italian. A digest of the protocol:
as §1

The subject of assay [4] is ragweed. In words: Test A preemergence. Format: in vivo, Ambrosia artemisiifolia. As to conditions: Ambrosia artemisiifolia, pre-emergence, 240 h, 1000 g ai/ha, 0 to 100 scale (0 no effect, 100 complete control), 10 days, read-out: Plant response rating, Ragweed. A digest of the protocol:
as §1

Assay [5] has as its system foxtail, giant. Description: Test A preemergence. Format: in vivo, Setaria faberi. As to conditions: Setaria faberi, pre-emergence, 240 h, 1000 g ai/ha, 0 to 100 scale (0 no effect, 100 complete control), 10 days, read-out: Plant response rating, Foxtail, Giant. In outline:
as §1

Assay [6] concerns ragweed. Description: Test A postemergence. The format is in vivo, Ambrosia artemisiifolia. The settings on record: Ambrosia artemisiifolia, post-emergence, 240 h, 1000 g ai/ha, Postemergence; 0 to 100 scale; read-out: Plant response rating, Ragweed. A digest of the protocol:
as §1

For assay [7], the system named is Pigweed, Redroot. Description: Test A postemergence. The format is in vivo, Amaranthus retroflexus. As to conditions: 1000 g ai/ha, Postemergence; 0 to 100 scale. A digest of the protocol: as §1
Assay [8] deals with corn. In words: Test A postemergence. The format is in vivo, Zea mays. As to conditions: Zea mays, post-emergence, 240 h, 1000 g ai/ha, Postemergence; 0 to 100 scale. A digest of the protocol: as §1
In assay [9] the test system is kochia. Description: Test A postemergence. The format is in vivo, Bassia scoparia. As to conditions: Bassia scoparia, post-emergence, 240 h, 1000 g ai/ha, Postemergence; 0 to 100 scale; read-out: Plant response rating, Kochia. A digest of the protocol:
as §1

Assay [10] relates to blackgrass. In words: Test A postemergence. The format is in vivo, Alopecurus myosuroides. As to conditions: Alopecurus myosuroides, post-emergence, 240 h, 1000 g ai/ha, Postemergence; 0 to 100 scale; read-out: Plant response rating, Blackgrass. A digest of the protocol:
as §1

Assay [11] deals with ducksalad. Description: Test B flooded paddy test. The format is in vivo, Heteranthera limosa. As to conditions: Heteranthera limosa, 312 h, 250 g ai/ha, Flood, 13 days, 0 to 100 scale (0 no effect, 100 complete control); read-out: Plant response rating, Ducksalad. In outline: (§2)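 Species grown to 2-leaf stage; pots flooded 3 cm above soil and compound applied directly to paddy water, depth maintained throughout. After 13 days in greenhouse, plants visually rated against controls on 0–100 scale (0 no effect, 100 complete control); dash means no result.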

Assay [12] relates to Pigweed, Redroot. In words: Test A preemergence. Format: in vivo, Amaranthus retroflexus. The settings on record: 1000 g ai/ha, 0 to 100 scale (0 no effect, 100 complete control), 10 days. In outline: as §1
Assay [13] has as its system kochia. In words: Test A preemergence. Format: in vivo, Bassia scoparia. As to conditions: Bassia scoparia, pre-emergence, 240 h, 1000 g ai/ha, 0 to 100 scale (0 no effect, 100 complete control), 10 days, read-out: Plant response rating, Kochia. A digest of the protocol:
as §1

Assay [14] has as its system barnyardgrass. Description: Test B flooded paddy test. Format: in vivo, Echinochloa crus-galli. As to conditions: Echinochloa crus-galli, 312 h, 250 g ai/ha, Flood, 13 days, 0 to 100 scale (0 no effect, 100 complete control); read-out: Plant response rating, Barnyardgrass. In outline: as §2
Assay [15] relates to sedge, umbrella. Description: Test B flooded paddy test. Format: in vivo, Cyperus difformis. As to conditions: Cyperus difformis, 312 h; 250 g ai/ha, Flood, 13 days, 0 to 100 scale (0 no effect, 100 complete control); read-out: Plant response rating, Sedge, Umbrella. In outline: as §2
Assay [16] relates to ryegrass, Italian. In words: Test A preemergence. Format: in vivo, Lolium multiflorum. As to conditions: Lolium multiflorum, pre-emergence, 240 h, 1000 g ai/ha, 0 to 100 scale (0 no effect, 100 complete control), 10 days, read-out: Plant response rating, Ryegrass, Italian. A digest of the protocol:
as §1

Assay [17] deals with rice. Description: Test B flooded paddy test. Format: in vivo, Oryza sativa. The settings on record: Oryza sativa, 312 h; 250 g ai/ha, Flood, 13 days, 0 to 100 scale (0 no effect, 100 complete control); read-out: Plant response rating, Rice. In outline:
as §2

The subject of assay [18] is wheat. Description: Test A postemergence. The settings on record: Triticum aestivum, post-emergence, 240 h, 1000 g ai/ha, Postemergence; 0 to 100 scale; read-out: Plant response rating, Wheat. Format: in vivo, Triticum aestivum. A digest of the protocol:
as §1

In assay [19] the test system is foxtail, giant. Description: Test A postemergence. The format is in vivo, Setaria faberi. The settings on record: Setaria faberi, post-emergence, 240 h, 1000 g ai/ha, Postemergence; 0 to 100 scale; read-out: Plant response rating, Foxtail, Giant. A digest of the protocol: as §1
In assay [20] the test system is galium. Description: Test A postemergence. The settings on record: Galium, post-emergence, 240 h, 1000 g ai/ha, Postemergence; 0 to 100 scale; read-out: Plant response rating, Galium. The format is in vivo, Galium aparine. In outline:
as §1

With `O=C(c1cccc(-n2cncn2)c1)N1CC(C2CC2)Oc2c(Cl)cccc21` (stereo not shown) [Compound 22, (8-Chloro-2-cyclopropyl-2,3-dihydro-4H-1,4-benzoxazin-4-yl)[3-(1H-1,2,4-triazol-1-yl)phenyl]methanone], the “Plant response rating, Barnyardgrass” value in [1] worked out at 50; in assay [2] it was 90. Besides, the pest or weed control at 1000 g/ha in [3] turned out to be 60%; in assay [4] it was 20%; in [5], 90%; in assay [6] it was 50%; in assay [9], 70%; in assay [10], 80%. For the same compound, the pest or weed control at 1000 g/ha in assay [13] came to 50%; in assay [16] it was 90%; in assay [19], 80%; in assay [20], 90%. For the same compound, the “Plant response rating, Pigweed, Redroot” value in assay [7] and in assay [12] was 60 each time. This compound also yielded a Corn plant response rating (crop injury, 0 = no effect, 100 = complete kill) at 1000 g/ha in assay [8] of 70%. Besides, the pest or weed control at 250 g/ha in assay [11], in assay [14] and in assay [15] was 0% each time. Also, in [17], the plant injury at 250 g/ha stood at 0%. Also, the plant injury at 1000 g/ha in [18] is 60%.
For `C[C@H]1CN(C(=O)c2cccc(-n3cncn3)c2)c2cccc(Cl)c2O1` [Compound 18, [(2S)-8-Chloro-2,3-dihydro-2-methyl-4H-1,4-benzoxazin-4-yl][3-(1H-1,2,4-triazol-1-yl)phenyl]methanone], the “Plant response rating, Barnyardgrass” value in assay [1] came to 70; in [2], 90. In addition, the pest or weed control at 1000 g/ha in [3] was 80%; in assay [4], 80%; in [5] it was 100%; in assay [6], 20%; in [9], 50%; in assay [10], 70%. The pest or weed control at 1000 g/ha is 70% in assay [13], 90% in [16], 90% in assay [19] and 90% in [20]. Besides, the “Plant response rating, Pigweed, Redroot” value came to 40 in assay [7] and 100 in assay [12]. In [8], this compound yielded a Corn plant response rating (crop injury, 0 = no effect, 100 = complete kill) at 1000 g/ha of 40%. The pest or weed control at 250 g/ha in assay [11], in assay [14] and in assay [15] was 0% in each case. Also, in assay [17], the plant injury at 250 g/ha was 0%. The plant injury at 1000 g/ha in [18] was 0%.
